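Five concentrations, 48 hours, 96-well plates. At the GI50, growth is halved.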 The source made the active and inactive calls. No stated cut-off is given here; in the data, active = GI50 up to about 1.1 µM and inactive = higher.
Tests used:
Assay in all cases: inhibition of tumour cell growth, NCI panel, 48 h
A498 = system: A498
SF-539 = system: SF-539
CAKI-1 = system: CAKI-1
HCT-15 = system: HCT-15
ACHN = system: ACHN
HOP-62 = system: HOP-62
NCI/ADR-RES = system: NCI/ADR-RES
SN12C = system: SN12C
LOX IMVI = system: LOX IMVI
CCRF-CEM = system: CCRF-CEM
786-0 = system: 786-0
HOP-92 = system: HOP-92
EKVX = system: EKVX
PC-3 = system: PC-3
OVCAR-4 = system: OVCAR-4
UACC-62 = system: UACC-62
HL-60 = system: HL-60
K562 = system: K562
U-251 = system: U-251
SF-295 = system: SF-295

Structure (SMILES)	GI50 (A498)	GI50 (SF-539)	GI50 (CAKI-1)	GI50 (HCT-15) [µM]	GI50 (ACHN)	GI50 (HOP-62)	GI50 (NCI/ADR-RES)	GI50 (SN12C)	GI50 (LOX IMVI)	GI50 (CCRF-CEM)	GI50 (786-0)	GI50 (HOP-92)	GI50 (EKVX)	GI50 (PC-3)	GI50 (OVCAR-4)	GI50 (UACC-62)	GI50 (HL-60)	GI50 (K562)	GI50 (U-251)	GI50 (SF-295)
CC(=O)C1=C(C)NC(=C(C#N)C#N)C(C#N)=C1	> 100 µM (inactive)	> 100 µM (inactive)	> 100 µM (inactive)	> 100	> 100 µM (inactive)	> 100 µM (inactive)	> 100 µM (inactive)	> 100 µM (inactive)	> 100 µM (inactive)	> 100 µM (inactive)	> 100 µM (inactive)	> 100 µM (inactive)	> 100 µM (inactive)	> 100 µM (inactive)	3.81 µM (inactive)	> 100 µM (inactive)	> 100 µM (inactive)	> 100 µM (inactive)	> 100 µM (inactive)	–
CC(C)OP(=O)(OC(C)C)/C(=N/Nc1ccc([N+](=O)[O-])cc1)Nc1ccc(N/C(=N\Nc2ccc([N+](=O)[O-])cc2)P(=O)(OC(C)C)OC(C)C)cc1	16.4 µM (inactive)	57.3 µM (inactive)	32.8 µM (inactive)	6.21	23.4 µM (inactive)	> 100 µM (inactive)	–	> 100 µM (inactive)	12.8 µM (inactive)	2.95 µM (inactive)	–	> 100 µM (inactive)	26.9 µM (inactive)	–	35.7 µM (inactive)	2.2 µM (inactive)	20.9 µM (inactive)	4.79 µM (inactive)	13.2 µM (inactive)	–
COC(=O)C(NC(=O)c1ccccc1)C(c1c(O)cc(O)cc1O)P(=O)(OC)OC (stereo not given)	> 100 µM (inactive)	> 100 µM (inactive)	> 100 µM (inactive)	> 100	> 100 µM (inactive)	> 100 µM (inactive)	–	> 100 µM (inactive)	> 100 µM (inactive)	32 µM (inactive)	–	> 100 µM (inactive)	> 100 µM (inactive)	–	> 100 µM (inactive)	6.73 µM (inactive)	74 µM (inactive)	27.2 µM (inactive)	> 100 µM (inactive)	> 100 µM (inactive)
O=C(O)c1ccccc1CN1CCCC(C(=O)O)C1 (stereo not given)	> 100 µM (inactive)	> 100 µM (inactive)	> 100 µM (inactive)	> 100	> 100 µM (inactive)	> 100 µM (inactive)	> 100 µM (inactive)	> 100 µM (inactive)	> 100 µM (inactive)	–	> 100 µM (inactive)	> 100 µM (inactive)	> 100 µM (inactive)	> 100 µM (inactive)	> 100 µM (inactive)	> 100 µM (inactive)	–	> 100 µM (inactive)	> 100 µM (inactive)	> 100 µM (inactive)
COC(=O)C1=C(C(=O)OC)C23CC1C1C(C(=O)OC)=C(C(=O)OC)C12C1C=CC3C2C(=O)OC(=O)C21 (stereo not given)	–	23.7 µM (inactive)	–	42.1	53.5 µM (inactive)	> 100 µM (inactive)	–	91.4 µM (inactive)	–	40.4 µM (inactive)	94.2 µM (inactive)	25.3 µM (inactive)	> 100 µM (inactive)	–	39.4 µM (inactive)	31.5 µM (inactive)	40.1 µM (inactive)	24 µM (inactive)	48.2 µM (inactive)	53 µM (inactive)
NC(=O)SCC(=O)Nc1ccc2ncccc2c1	> 100 µM (inactive)	28.1 µM (inactive)	> 100 µM (inactive)	55.1	> 100 µM (inactive)	> 100 µM (inactive)	> 100 µM (inactive)	56 µM (inactive)	31.6 µM (inactive)	29.6 µM (inactive)	26.8 µM (inactive)	35.2 µM (inactive)	> 100 µM (inactive)	64.9 µM (inactive)	> 100 µM (inactive)	46.2 µM (inactive)	> 100 µM (inactive)	36.1 µM (inactive)	21.5 µM (inactive)	53.2 µM (inactive)
COC(=O)CCC(=O)c1ccc2c(c1)CCC2	> 100 µM (inactive)	> 100 µM (inactive)	> 100 µM (inactive)	> 100	> 100 µM (inactive)	> 100 µM (inactive)	> 100 µM (inactive)	–	> 100 µM (inactive)	> 100 µM (inactive)	> 100 µM (inactive)	> 100 µM (inactive)	> 100 µM (inactive)	> 100 µM (inactive)	> 100 µM (inactive)	–	> 100 µM (inactive)	> 100 µM (inactive)	> 100 µM (inactive)	> 100 µM (inactive)
O=C1C[C@@H]2[C@@H](C=CC23CCCC3)N1O	> 100 µM (inactive)	> 100 µM (inactive)	> 100 µM (inactive)	> 100	> 100 µM (inactive)	> 100 µM (inactive)	–	> 100 µM (inactive)	> 100 µM (inactive)	> 100 µM (inactive)	> 100 µM (inactive)	–	> 100 µM (inactive)	–	> 100 µM (inactive)	> 100 µM (inactive)	> 100 µM (inactive)	> 100 µM (inactive)	> 100 µM (inactive)	> 100 µM (inactive)

From ChEMBL document CHEMBL1201862, “PubChem BioAssay data set” (2004)
